Experimental data as given in patent US11147812B2, “Tyrosine analogues derivatives as Rho-kinase inhibitors” (Chiesi Farmaceutici S.p.A., priority 2017, dated 2021).

Tests used:
[1] = target: Rho kinase 1 (ROCK1) (Homo sapiens, UniProt Q13464); assay: In vitro Rho kinase inhibitory activity assay (ADP-Glo), ROCK1; type: biochemical; details: 10 μM ATP, 25° C., Ki by Cheng-Prusoff
Procedure: (§1) The effectiveness of compounds of the present invention to inhibit Rho kinase activity can be determined in a 10 μl assay containing 40 mM Tris pH7.5, 20 mM MgCl2 0.1 mg/ml BSA, 50 μM DTT and 2.5 μM peptide substrate (Myelin Basic Protein) using an ADP-Glo kit (Promega). Compounds were dissolved in DMSO such that the final concentration of DMSO was 1% in the assay. All reactions/incubations are performed at 25° C. Compound (2 ul) and either Rho kinase 1 or 2 (4 μl) were mixed and incubated for 30 mins. Reactions were initiated by addition of ATP (4 μl) such that the final concentration of ATP in the assay was 10 μM. After a 1 hour incubation 10 μl of ADP-Glo Reagent was added and after a further 45 minute incubation 20 ul of Kinase Detection Buffer was added and the mixture incubated for a further 30 minutes. The luminescent signal was measured on a luminometer. […] Compounds were tested in dose-response format and the inhibition of kinase activity was calculated at each concentration of compound. To determine the IC50 (concentration of compound required to inhibit 50% of the enzyme activity) data were fit to a plot of % inhibition vs Log10 compound concentration using a sigmoidal fit with a variable slope and fixing the maximum to 100% and the minimum to 0%. To determine the Ki values the Cheng-Prusoff equation was utilized (Ki=IC50/(1+[S]/Km)

[2] = target: Rho kinase 2 (ROCK2) (Homo sapiens, UniProt O75116); assay: In vitro Rho kinase inhibitory activity assay (ADP-Glo), ROCK2; type: biochemical; details: 10 μM ATP, 25° C., Ki by Cheng-Prusoff
Procedure: as §1

Sequence of Rho kinase 1 (ROCK1) (Q13464 whole entry): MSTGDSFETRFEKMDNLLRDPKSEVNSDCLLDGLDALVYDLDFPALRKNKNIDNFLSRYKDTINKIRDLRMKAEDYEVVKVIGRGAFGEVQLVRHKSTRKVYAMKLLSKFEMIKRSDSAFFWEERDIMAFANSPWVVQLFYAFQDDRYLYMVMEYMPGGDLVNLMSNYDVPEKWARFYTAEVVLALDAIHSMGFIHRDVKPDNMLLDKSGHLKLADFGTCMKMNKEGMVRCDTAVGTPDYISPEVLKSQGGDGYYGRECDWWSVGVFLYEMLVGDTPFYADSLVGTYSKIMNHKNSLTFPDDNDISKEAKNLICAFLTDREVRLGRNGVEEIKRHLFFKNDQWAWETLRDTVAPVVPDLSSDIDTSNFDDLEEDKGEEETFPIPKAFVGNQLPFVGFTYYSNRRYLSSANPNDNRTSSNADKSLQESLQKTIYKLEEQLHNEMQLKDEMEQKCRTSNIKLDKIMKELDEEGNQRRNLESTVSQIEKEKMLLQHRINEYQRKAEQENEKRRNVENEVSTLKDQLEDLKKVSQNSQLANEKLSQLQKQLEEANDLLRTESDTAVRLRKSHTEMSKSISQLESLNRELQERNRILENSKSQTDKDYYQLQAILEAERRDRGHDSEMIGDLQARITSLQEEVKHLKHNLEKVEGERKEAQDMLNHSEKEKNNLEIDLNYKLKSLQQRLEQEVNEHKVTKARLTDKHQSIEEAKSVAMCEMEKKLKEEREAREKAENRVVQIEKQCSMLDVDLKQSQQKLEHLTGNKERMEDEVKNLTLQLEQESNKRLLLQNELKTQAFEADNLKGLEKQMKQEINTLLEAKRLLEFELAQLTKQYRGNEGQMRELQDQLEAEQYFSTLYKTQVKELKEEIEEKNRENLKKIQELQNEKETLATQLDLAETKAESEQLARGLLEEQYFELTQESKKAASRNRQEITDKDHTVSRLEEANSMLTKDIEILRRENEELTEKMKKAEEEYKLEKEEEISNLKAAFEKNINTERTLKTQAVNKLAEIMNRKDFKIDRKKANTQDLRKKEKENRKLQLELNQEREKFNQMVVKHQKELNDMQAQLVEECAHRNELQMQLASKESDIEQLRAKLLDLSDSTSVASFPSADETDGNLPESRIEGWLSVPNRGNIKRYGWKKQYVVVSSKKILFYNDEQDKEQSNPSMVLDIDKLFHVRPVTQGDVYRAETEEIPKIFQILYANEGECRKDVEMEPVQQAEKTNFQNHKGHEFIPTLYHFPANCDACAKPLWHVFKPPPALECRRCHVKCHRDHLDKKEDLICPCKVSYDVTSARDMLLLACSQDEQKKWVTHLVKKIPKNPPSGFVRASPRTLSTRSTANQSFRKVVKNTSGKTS
Sequence of Rho kinase 2 (ROCK2) (O75116 whole entry): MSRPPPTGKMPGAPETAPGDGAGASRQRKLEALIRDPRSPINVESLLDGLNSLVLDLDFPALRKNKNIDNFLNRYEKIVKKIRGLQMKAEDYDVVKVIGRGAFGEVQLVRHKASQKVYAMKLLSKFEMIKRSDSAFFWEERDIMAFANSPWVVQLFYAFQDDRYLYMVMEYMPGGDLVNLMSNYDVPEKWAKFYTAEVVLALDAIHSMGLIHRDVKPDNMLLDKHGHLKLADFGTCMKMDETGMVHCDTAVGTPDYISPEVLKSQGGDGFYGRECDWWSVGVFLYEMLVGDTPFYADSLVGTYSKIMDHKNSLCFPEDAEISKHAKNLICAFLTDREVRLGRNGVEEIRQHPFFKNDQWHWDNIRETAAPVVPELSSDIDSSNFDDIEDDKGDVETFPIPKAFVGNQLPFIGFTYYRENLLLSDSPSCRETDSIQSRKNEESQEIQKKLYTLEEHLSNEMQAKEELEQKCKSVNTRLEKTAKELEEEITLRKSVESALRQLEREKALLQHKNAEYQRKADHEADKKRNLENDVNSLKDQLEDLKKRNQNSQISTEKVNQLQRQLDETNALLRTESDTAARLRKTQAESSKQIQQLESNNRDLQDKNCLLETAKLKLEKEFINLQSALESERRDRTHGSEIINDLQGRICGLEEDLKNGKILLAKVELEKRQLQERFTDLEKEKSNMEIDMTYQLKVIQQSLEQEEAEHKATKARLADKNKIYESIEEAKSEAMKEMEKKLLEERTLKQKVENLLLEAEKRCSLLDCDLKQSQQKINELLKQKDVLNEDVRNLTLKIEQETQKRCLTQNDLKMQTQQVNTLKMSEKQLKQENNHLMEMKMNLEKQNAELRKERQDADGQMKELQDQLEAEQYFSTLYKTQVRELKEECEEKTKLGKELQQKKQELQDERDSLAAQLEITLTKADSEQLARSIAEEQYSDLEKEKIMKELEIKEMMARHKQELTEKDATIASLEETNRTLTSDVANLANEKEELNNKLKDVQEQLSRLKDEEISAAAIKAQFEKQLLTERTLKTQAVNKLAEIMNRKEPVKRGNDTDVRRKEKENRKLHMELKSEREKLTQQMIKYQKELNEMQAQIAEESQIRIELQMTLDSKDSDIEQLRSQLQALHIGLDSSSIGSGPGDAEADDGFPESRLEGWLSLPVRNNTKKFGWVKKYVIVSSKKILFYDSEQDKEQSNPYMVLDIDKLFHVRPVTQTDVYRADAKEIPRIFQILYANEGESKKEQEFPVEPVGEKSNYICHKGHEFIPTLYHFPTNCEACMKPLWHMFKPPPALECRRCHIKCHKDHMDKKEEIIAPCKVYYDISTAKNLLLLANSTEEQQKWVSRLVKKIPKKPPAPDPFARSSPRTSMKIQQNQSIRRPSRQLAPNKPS

Row | Ki [1] | Ki [2] | SMILES
1 | < 3 nM | < 3 nM | Cc1c[nH]c2nccc(Oc3ccc([C@H]4CCN[C@@H]4C(=O)NCc4ccccc4)cc3)c12 (racemic) [Example 19, rac-(2S,3R)-N-benzyl-3-(4-((3-methyl-1H-pyrrolo[2,3-b]pyridin-4-yl)oxy)phenyl)pyrrolidine-2-carboxamide]
2 | > 30 nM | > 30 nM | CN(C)C(=O)C(N)c1ccc(Oc2ccnc3[nH]ccc23)cc1 (centres unmarked) [Example 12, 2-(4-((1H-pyrrolo[2,3-b]pyridin-4-yl)oxy)phenyl)-2-amino-N,N-dimethylacetamide]
3 | 3 to 30 nM | < 3 nM | COCCCNC(=O)[C@H]1NCC[C@@H]1c1ccc(Oc2ccnc3[nH]cc(C)c23)cc1 (racemic) [Example 21, rac-(2S,3R)-N-(3-methoxypropyl)-3-(4-((3-methyl-1H-pyrrolo[2,3-b]pyridin-4-yl)oxy)phenyl)pyrrolidine-2-carboxamide]
4 | 3 to 30 nM | 3 to 30 nM | Cc1c[nH]c2nccc(Oc3ccc(CC4CNCN(CCCN(C)C)C4=O)cc3F)c12 (centres unmarked) [Example 41, 3-(3-(dimethylamino)propyl)-5-(3-fluoro-4-((3-methyl-1H-pyrrolo[2,3-b]pyridin-4-yl)oxy)benzyl)tetrahydropyrimidin-4(1H)-one]
5 | > 30 nM | > 30 nM | Cc1c[nH]c2nccc(Oc3ccc(C4CC(=O)N(CCCN(C)C)CN4)cc3)c12 (centres unmarked) [Example 38, 3-(3-(dimethylamino)propyl)-6-(4-((3-methyl-1H-pyrrolo[2,3-b]pyridin-4-yl)oxy)phenyl)tetrahydropyrimidin-4(1H)-one]
6 | > 30 nM | > 30 nM | NC(C(=O)Nc1ccccc1)c1ccc(Oc2ccnc3[nH]ccc23)cc1 (centres unmarked) [Example 9, 2-(4-((1H-pyrrolo[2,3-b]pyridin-4-yl)oxy)phenyl)-2-amino-N-phenylacetamide]
7 | < 3 nM | < 3 nM | NCC(Cc1ccc(Oc2ccnc3[nH]ccc23)cc1)C(=O)N1CCN(Cc2ccccc2)CC1 (centres unmarked) [Example 32, 2-(4-((1H-pyrrolo[2,3-b]pyridin-4-yl)oxy)benzyl)-3-amino-1-(4-benzylpiperazin-1-yl)propan-1-one]
8 | < 3 nM | < 3 nM | Cc1c[nH]c2nccc(Oc3ccc([C@H]4CNC[C@@H]4C(=O)NCc4ccccc4)cc3)c12 (single isomer, unassigned) [Example 17A]
9 | < 3 nM | < 3 nM | Cc1c[nH]c2nccc(Oc3ccc(CC(CN)C(=O)N4CCN(Cc5ccccc5)CC4)cc3F)c12 (single isomer, unassigned) [Example 29B, 3-amino-1-(4-benzylpiperazin-1-yl)-2-(3-fluoro-4-((3-methyl-1H-pyrrolo[2,3-b]pyridin-4-yl)oxy)benzyl)propan-1-one]
10 | < 3 nM | < 3 nM | Cc1c[nH]c2nccc(Oc3ccc([C@H]4CCN[C@@H]4C(=O)NCCc4ccncc4)cc3)c12 (racemic) [Example 20, rac-(2S,3R)-3-(4-((3-methyl-1H-pyrrolo[2,3-b]pyridin-4-yl)oxy)phenyl)-N-(2-(pyridin-4-yl)ethyl)pyrrolidine-2-carboxamide]
11 | 3 to 30 nM | 3 to 30 nM | CN1CCC(N2CNCC(Cc3ccc(Oc4ccnc5[nH]cc(C#N)c45)cc3)C2=O)CC1 (centres unmarked) [Example 47, 4-(4-((1-(1-methylpiperidin-4-yl)-6-oxohexahydropyrimidin-5-yl)methyl)phenoxy)-1H-pyrrolo[2,3-b]pyridine-3-carbonitrile]
12 | < 3 nM | < 3 nM | Cc1c[nH]c2nccc(Oc3ccc([C@H]4CCN[C@@H]4C(=O)NCCc4ccccc4)cc3)c12 (racemic) [Example 22, rac-(2S,3R)-3-(4-((3-methyl-1H-pyrrolo[2,3-b]pyridin-4-yl)oxy)phenyl)-N-phenethylpyrrolidine-2-carboxamide]
13 | < 3 nM | < 3 nM | Cc1c[nH]c2nccc(Oc3ccc([C@H]4CNC[C@@H]4C(=O)NCc4ccccc4)cc3)c12 (racemic) [Example 17, rac-(3R,4S)-N-benzyl-4-(4-((3-methyl-1H-pyrrolo[2,3-b]pyridin-4-yl)oxy)phenyl)pyrrolidine-3-carboxamide]
14 | 3 to 30 nM | 3 to 30 nM | COCCCNC(=O)C(CN)Cc1ccc(Oc2ccnc3[nH]ccc23)cc1 (centres unmarked) [Example 35, 2-(4-((1H-pyrrolo[2,3-b]pyridin-4-yl)oxy)benzyl)-3-amino-N-(3-methoxypropyl)propanamide]
15 | < 3 nM | < 3 nM | Cc1c[nH]c2nccc(Oc3ccc(C(N)CC(=O)N4CCN(Cc5ccccc5)CC4)cc3)c12 (single isomer, unassigned) [Example 7A, 3-amino-1-(4-benzylpiperazin-1-yl)-3-(4-((3-methyl-1H-pyrrolo[2,3-b]pyridin-4-yl)oxy)phenyl)propan-1-one]
16 | 3 to 30 nM | 3 to 30 nM | Cc1c[nH]c2nccc(Oc3ccc([C@@H]4CCN[C@H]4C(=O)N4CCNCC4)cc3)c12 (racemic) [Example 27, rac-((2S,3R)-3-(4-((3-methyl-1H-pyrrolo[2,3-b]pyridin-4-yl)oxy)phenyl)pyrrolidin-2-yl)(piperazin-1-yl)methanone]
17 | 3 to 30 nM | 3 to 30 nM | NCC(Cc1ccc(Oc2ccnc3[nH]ccc23)cc1)C(=O)N1CCN(Cc2ccccc2)CC1 (single isomer, unassigned) [Example 32A, 2-(4-((1H-pyrrolo[2,3-b]pyridin-4-yl)oxy)benzyl)-3-amino-1-(4-benzylpiperazin-1-yl)propan-1-one]
18 | < 3 nM | < 3 nM | Cc1c[nH]c2nccc(Oc3ccc(CC(CN)C(=O)N4CCN(C5CC5)CC4)cc3)c12 (centres unmarked) [Example 2, 3-amino-1-(4-cyclopropylpiperazin-1-yl)-2-(4-((3-methyl-1H-pyrrolo[2,3-b]pyridin-4-yl)oxy)benzyl)propan-1-one]
19 | < 3 nM | < 3 nM | Cc1c[nH]c2nccc(Oc3ccc(CC(CN)C(=O)NC4CCCCC4)cc3)c12 (centres unmarked) [Example 31, 3-amino-N-cyclohexyl-2-(4-((3-methyl-1H-pyrrolo[2,3-b]pyridin-4-yl)oxy)benzyl)propanamide]
20 | > 30 nM | > 30 nM | CN1CCN(C(=O)C(N)c2ccc(Oc3ccnc4[nH]ccc34)cc2)CC1 (centres unmarked) [Example 11, 2-(4-((1H-pyrrolo[2,3-b]pyridin-4-yl)oxy)phenyl)-2-amino-1-(4-methylpiperazin-1-yl)ethanone]
21 | < 3 nM | < 3 nM | Cc1c[nH]c2nccc(Oc3ccc([C@H]4CCN[C@@H]4C(=O)NCCOc4ccccc4)cc3)c12 (racemic) [Example 23, rac-(2S,3R)-3-(4-((3-methyl-1H-pyrrolo[2,3-b]pyridin-4-yl)oxy)phenyl)-N-(2-phenoxyethyl)pyrrolidine-2-carboxamide]
22 | 3 to 30 nM | 3 to 30 nM | Cc1c[nH]c2nccc(Oc3ccc([C@H]4CCN[C@@H]4C(=O)NC4CCOCC4)cc3)c12 (racemic) [Example 24, rac-(2S,3R)-3-(4-((3-methyl-1H-pyrrolo[2,3-b]pyridin-4-yl)oxy)phenyl)-N-(tetrahydro-2H-pyran-4-yl)pyrrolidine-2-carboxamide]
23 | 3 to 30 nM | 3 to 30 nM | Cc1c[nH]c2nccc(Oc3ccc(CC(CN)C(=O)N4CCN(Cc5ccccn5)CC4)cc3F)c12 (single isomer, unassigned) [Example 5A, 3-amino-2-(3-fluoro-4-((3-methyl-1H-pyrrolo[2,3-b]pyridin-4-yl)oxy)benzyl)-1-(4-(pyridin-2-ylmethyl)piperazin-1-yl)propan-1-one]
24 | < 3 nM | < 3 nM | Cc1c[nH]c2nccc(Oc3ccc(C(CN)CC(=O)N4CCN(Cc5ccccc5)CC4)cc3)c12 (centres unmarked) [Example 15, 4-amino-1-(4-benzylpiperazin-1-yl)-3-(4-((3-methyl-1H-pyrrolo[2,3-b]pyridin-4-yl)oxy)phenyl)butan-1-one]
25 | > 30 nM | > 30 nM | COCCCN1CNC(c2ccc(Oc3ccnc4[nH]cc(C)c34)cc2)CC1=O (centres unmarked) [Example 39, 3-(3-methoxypropyl)-6-(4-((3-methyl-1H-pyrrolo[2,3-b]pyridin-4-yl)oxy)phenyl)tetrahydropyrimidin-4(1H)-one]
26 | 3 to 30 nM | 3 to 30 nM | Cc1c[nH]c2nccc(Oc3ccc([C@H]4CCN[C@@H]4C(=O)NC4CCN(C)CC4)cc3)c12 (racemic) [Example 25, rac-(2S,3R)-3-(4-((3-methyl-1H-pyrrolo[2,3-b]pyridin-4-yl)oxy)phenyl)-N-(1-methylpiperidin-4-yl)pyrrolidine-2-carboxamide]
27 | < 3 nM | < 3 nM | NCC(Cc1ccc(Oc2ccnc3[nH]ccc23)cc1)C(=O)N1CCN(Cc2ccccc2)CC1 (single isomer, unassigned) [Example 32B, 2-(4-((1H-pyrrolo[2,3-b]pyridin-4-yl)oxy)benzyl)-3-amino-1-(4-benzylpiperazin-1-yl)propan-1-one]
28 | < 3 nM | < 3 nM | CN(C)CCCNC(=O)C(CN)Cc1ccc(Oc2ccnc3[nH]cc(C#N)c23)cc1 (centres unmarked) [Example 44, 3-amino-2-(4-((3-cyano-1H-pyrrolo[2,3-b]pyridin-4-yl)oxy)benzyl)-N-(3-(dimethylamino)propyl)propanamide]
